{"source": "patent US20140234227A1", "about": "“FOAM FORMULATIONS” (OTIC PHARMA LTD, priority 2011, published 2014)", "assay_in_all_cases": "Antibiotics-Microbial Assay - Zone of Growth Inhibition", "format_in_all_cases": "cell-based", "key": {"[1]": {"system": "Pseudomonas aeruginosa (ATCC No. 9027)", "details": "LB-agar, 24 hrs at 37° C.", "procedure": "(§1) In this assay the diameter (halo) of bacterial growth inhibition around filters soaked with a test item was measured and compared to a standard solution of antibiotic. For this end, sterile Microbiological cotton swabs were soaked with cultures of E. Coli (ATCC No. 8739), S. aureus (ATCC No. 6538) or of Pseudomonas aeruginosa (ATCC No. 9027) and evenly spread on top of LB-agar plates. Filters soaked with the tested formulation were placed on top of the plates and the plates were further incubated for 24 hrs. The diameter (halo) of growth inhibition around each filter was measured after 24 hrs of incubation at 37° C. A solution that contained the same concentration of Ciprofloxacin Hydrochloride (0.35%) as in the formulation tested was used as a control."}, "[2]": {"system": "S. aureus (ATCC No. 6538)", "details": "Staph. Aureus, LB-agar, 24 hrs at 37° C.", "procedure": "as §1"}, "[3]": {"system": "E. Coli (ATCC No. 8739)", "details": "LB-agar, 24 hrs at 37° C.", "procedure": "as §1"}}, "note": "Where a name gives a salt, the structure may show the parent alone."}
{"smiles": "O=C(O)c1cn(C2CC2)c2cc(N3CCNCC3)c(F)cc2c1=O", "note": "[Ciprofloxacin HCl solution (0.35%), monohydrochloride monohydrate salt of 1-cyclopropyl-6-fluoro-1,4-dihydro-4-oxo-7-(1-piperazinyl)-3-quinolinecarboxylic acid]", "values": [{"measurement": "diameter of growth inhibition", "setting": "[1]", "result": 4.85, "unit": "cm"}, {"measurement": "diameter of growth inhibition", "setting": "[2]", "result": 4.7, "unit": "cm"}, {"measurement": "diameter of growth inhibition", "setting": "[3]", "result": 3.6, "unit": "cm"}]}
